How the values were obtained:
[1] = In vitro skin permeation, Franz diffusion cell system; format: in vitro ADME, human; details: for Total accumulated dose passed through the skin into the reservoir / Total accumulated dose in Dermis / Total accumulated dose in Epidermis: 1.0 wt % in squalane, 5 μl, nominal 90.91 μg/cm^2; for penetration to the dermis compared with THDA: 24 hour time point, cadaver skin; for Total accumulated dose in Dermis / Total accumulated dose in Epidermis: measured at 24 hours
Description: The rate and extent of in vitro skin permeation of compounds tetrahexydecyl ascorbate (THDA, shown below), di(hexahydrofarnesyl) ascorbate (Compound (II-A)), tri(hexahydrofarnesyl) ascorbate (Compound (II-B)), and tetra(hexahydrofamesyl) ascorbate (Compound (II-C)) was measured into and through cadaver skin using a Franz diffusion cell system. THDA is a Vitamin C ester commonly used in cosmetic formulations.
Flux was measured over a period of 24 hours after application of the formulations. At the end of the 24 hour study, the skin was washed, tapestripped and split into epidermal and dermal compartments. The compounds were then extracted from the skin compartments and the compound concentration was measured in these compartments along with the receptor fluid aliquots. The formulations were chosen to determine the effect of the formulation composition and compound concentration on the rate of delivery of the compounds into and through the skin. In vitro skin permeation measurements with Franz-type diffusion cells provide data that is informative relative to in vivo performance.
To prepare the formulations, the compounds were weighed in a glass vial into which the squalane was added. The ending solution was then vortexed for 1 minute, followed by sonication for 30 minutes.
Intact human cadaver skin was purchased from Science Care. The skin tissue was dermatomed by the tissue bank to a thickness of some 250-500 μm and shipped frozen on dry ice. Upon receipt of the donor skin, the skin pieces were stored at −20° C. until used. Prior to use, the skin pieces were removed from the freezer and allowed to thaw fully at ambient temperature.
The following equipment was used during the course of the study: • 1.) Diffusion cells. 24 diffusion cells with 3.3 ml receptor volume and a […] receptor fluid exposure surface area. • 2.) Stirring Dry Block Heaters. Reacti-Therm #18823 stirring dry block heaters were used to maintain the receptor fluid at 32±0.5° C. with constant stirring throughout the study. • 3.) The analysis was carried out with an Agilent 1260 HPLC with a G6120 MS detector and a G4212B diode array detector.
After the analytical testing was complete, the samples were analyzed using Chemstation software. The areas under the curve (“AUCs”) of the compound peaks were recorded and converted to jig/ml values using a calibration curve developed from the calibration standards' AUC values and known concentration values. The concentrations were then multiplied by the receptor volume (3.3 mL) and divided by the surface area of the skin exposed to the receptor fluid (0.55 cm^2) for an end cumulative amount in μg/cm^2.
For receptor fluid time points greater than 4 hrs, this μg/cm^2 value was corrected for the sample aliquot volumes which were removed to compensate for the dilution caused by replacing the sample volume with fresh buffer solution. As an example, for the second time point at 8 hrs, the dilution factor (300 μl aliquot/3.3 ml receptor volume or 1/11) is multiplied by the g/cm^2 value calculated for the 4 hr time point, the result of which is then added to the μg/cm^2 concentration which is calculated using the 8 hr AUC value.
The receptor fluid consisted of phosphate buffered saline at pH 7.4, sourced from Quality Biologicals, with 0.01 wt % NaN3 (added as a preservative), and lwt % Brij 020 (added as a solubilizing agent). The solubility of the compounds in the receptor fluid was determined to be sufficient to maintain sink conditions throughout the study. After mixing the receptor fluid, the receptor fluid was degassed, filtered through a ZapCap CR 0.2 μm membrane under vacuum, and stirred for an additional 20 minutes under vacuum.
Glass FDCs with a 3.3 ml receiver volume and 0.55 cm^2 diffusional area were used. Once the skin was defrosted and washed as described above the FDCs were prepared as follows: • 1. The receptor wells were filled with degassed receptor fluid using a pipette. • 2. […]

[2] = Surface tension by pendant drop; format: physicochemical; details: for surface tension (comparison in words): pendant drop shape analysis, FIG. 4; for Surface tension: Kruss DSA 100, pendant drop
Description: The surface tension of a material in beauty and personal care (B&PC) ingredients accounts for many of the sensory attributes. The lower the surface tension of a material the better is the material's spreadability, slip, glide, and lubricity.
(§1) Example 9: Wetting on Hydrophobic-PTFE and Hydrophilic-Glass Slide Substrates by Static Contact Angle and Surface Tension by Pendant Drop Shape Analysis
(§2) The wetting values (on hydrophobic-PTFE and on hydrophilic-glass slides) were measured and compared for amodimethicone, LEX FEEL (diheptyl succinate), non-redistilled HDD, distilled HDD, PROTOL (mineral oil), RUDOL (mineral oil), ERVOL (mineral oil), and squalane. […] The lower surface tension of HDD can be translated to better spreading and glide in formulations and position it comparably with mineral oils with similar viscosities and LEX FEEL 350.
(§3) Measurement of surface tension of liquids: A Kruss DSA 100 was employed using the pendant drop method. Prior to the measurement, surface tension of the water was tested as a standard with an expected surface tension of 72 mN/m at 25° C. Then, a drop of the tested liquid was pushed through a 0.514 mm needle of a micro syringe and the surface tension was calculated using inbuilt software. The result of the measurement is an average of at least 3 measurements. Static contact angle measurement (wetting): To measure the contact angle, a Kriss DSA 100 and the sessile drop method were used. A glass substrate was used for the measurements. To measure the contact angle on the substrate, a single drop was deposited onto the substrate from a 0.514 mm needle of a micro syringe. Then, drop shape and contact angle were analyzed using inbuilt software. The result of the measurement was the average of at least 3 measurements. To ensure that the substrate is prepared well, it was cleaned with non-polar hexane, THF, and polar acetone. To ensure that the glass substrate was clean, a drop of water was deposited on its surface. Gloss measurement: To measure the gloss, 2 mL of material was drawn downed on a glass substrate. Then glass was placed over a black matte surface and gloss was measured with a BYK micro-TRI-gloss glossmeter.

[3] = Static contact angle (wetting) on glass / PTFE; format: physicochemical; details: for Water contact angle: static contact angle on glass
Description: Static water contact angle is another indication of material spreading and wetting.
as §1, §2, §3

[4] = Gloss measurement (glossmeter); format: physicochemical
Description: Gloss is a very desirable property in B&PC products. Gloss was measured at 20 deg.
Tested dimethicones have the lowest gloss.
as §3

[5] = Viscosity (capillary viscometer / rheometer); format: physicochemical; details: for Viscosity: at 25° C., ARES G2 rheometer
Description: The viscosity, gloss, surface tension, and wetting were also calculated for farnesyl HH-farnesoate (Compound (I-C)) and the results are shown in Table 4. The properties of Table 4 were determined as follows: Measurement of dynamic viscosity using rheometer: Using a ARES G2 rheometer, the viscosity of the samples were measured using 25 mm plate clamps with a gap size about 0.5 mm, strain 1%, frequency range 1-500 rad/s, and a temperature of about 25° C.

In the case of `CC(C)CCCC(C)CCCC(C)CC(=O)OC[C@H](OC(=O)CC(C)CCCC(C)CCCC(C)C)C1OC(=O)C(O)=C1OC(=O)CC(C)CCCC(C)CCCC(C)C` (stereo partly drawn) [Compound (II-B), (1S)-1-(4-hydroxy-5-oxo-3-((3,7,11-trimethyldodecanoyl)oxy)-2,5-dihydrofuran-2-yl)ethane-1,2-diyl bis(3,7,11-trimethyldodecanoate)], the “Total accumulated dose passed through the skin into the reservoir” value ([1]; 4 hrs) is reported as 0.00 μg/cm^2, the “Total accumulated dose passed through the skin into the reservoir” value ([1]; 8 hrs) is reported as 0.00 μg/cm^2 and the “penetration to the dermis compared with THDA” value [1] is reported as “better penetration to the dermis”. The “Total accumulated dose passed through the skin into the reservoir” value ([1]; 24 hrs) was 0.00 μg/cm^2, the “Total accumulated dose in Dermis” value [1] was 1.37 μg/cm^2 and the “Total accumulated dose in Epidermis” value [1] was 4.41 μg/cm^2.

With hexahydrofarnesene dimer [HDD] the “Surface tension, mN/m” value [2] was 24.5 mN/m, the “surface tension (comparison in words)” value ([2]; listed as Distilled HDD) was “lower surface tension value” and the Water contact angle [3] was 19.8 °. For the same compound, the Gloss ([4]; measured at 20 deg) was 70.6, the “Viscosity @20 C., cP” value [5] was 61.5 cP and the viscosity by rheology [5] was 61.5.

In the case of `CC(C)CCCC(C)CCCC(C)CCCCC(C)CCCC(C)CCCC(C)C` (centres unmarked) [Squalane, squalane, reference compound], the “Surface tension, mN/m” value [2] is reported as 26.1 mN/m, the Water contact angle [3] is reported as 30.9 ° and the “gloss value (comparison in words)” value [4] is reported as “somewhat lower gloss value”. For the same compound, the Gloss ([4]; measured at 20 deg) was 65.7 and the “Viscosity @20 C., cP” value [5] was 23.3 cP.

In the case of `CC(C)CCCC(C)CCCC(C)CCOC(=O)CC(C)CCCC(C)CCCC(C)C` (centres unmarked) [Compound (I-C), 3,7,11-trimethyldodecyl 3,7,11-trimethyldodecanoate], the Surface tension [2] is reported as 27.6 ± 0.2 mN/m, the Surface tension ([2]; listed as Compound I-C) is reported as 27.6±0.2 mN/m and the “Wetting (static contact angle)” value ([3]; sessile drop on glass substrate) is reported as 18.5°. The Gloss ([4]; BYK micro-TRI-gloss glossmeter, drawn down on glass) was 69.4 ± 2.7, the Viscosity [5] was 30 ± 10 cP at 25 °C and the Viscosity ([5]; listed as Compound I-C) was 30±10 cP.

For `CC(C)CCCC(C)CCCC(C)CC(=O)OC[C@H](OC(=O)CC(C)CCCC(C)CCCC(C)C)C1OC(=O)C(OC(=O)CC(C)CCCC(C)CCCC(C)C)=C1OC(=O)CC(C)CCCC(C)CCCC(C)C` (stereo partly drawn) [Compound (II-C), 2-((1S)-1,2-bis((3,7,11-trimethyldodecanoyl)oxy)ethyl)-5-oxo-2,5-dihydrofuran-3,4-diyl bis(3,7,11-trimethyldodecanoate)], the “Total accumulated dose passed through the skin into the reservoir” value ([1]; 4 hrs) was 0.05 μg/cm^2, the “Total accumulated dose passed through the skin into the reservoir” value ([1]; 8 hrs) was 0.03 μg/cm^2 and the “Total accumulated dose passed through the skin into the reservoir” value ([1]; 24 hrs) was 0.04 μg/cm^2. For the same compound, the “Total accumulated dose in Dermis” value [1] was 0.01 μg/cm^2 and the “Total accumulated dose in Epidermis” value [1] was 1.02 μg/cm^2.

With `CC(C)CCCC(C)CCCC(C)CC(=O)OC[C@H](OC(=O)CC(C)CCCC(C)CCCC(C)C)C1OC(=O)C(O)=C1O` (stereo partly drawn) [Compound (II-A), (1S)-1-(3,4-dihydroxy-5-oxo-2,5-dihydrofuran-2-yl)ethane-1,2-diyl bis(3,7,11-trimethyldodecanoate)] the “Total accumulated dose passed through the skin into the reservoir” value ([1]; 4 hrs) was 0.17 μg/cm^2, the “Total accumulated dose passed through the skin into the reservoir” value ([1]; 8 hrs) was 0.18 μg/cm^2 and the “penetration to the dermis compared with THDA” value [1] was “better penetration to the dermis”. For the same compound, the “Total accumulated dose passed through the skin into the reservoir” value ([1]; 24 hrs) was 0.20 μg/cm^2, the “Total accumulated dose in Dermis” value [1] was 0.85 μg/cm^2 and the “Total accumulated dose in Epidermis” value [1] was 9.28 μg/cm^2.

With “hexahydrofarnesene dimer [HDD Glycotech]” the “surface tension (comparison in words)” value ([2]; listed as Non-redistilled HDD) was “highest values of surface tension” and the viscosity by rheology [5] was 68.2.

With `CCCCCCCCC(CCCCCC)C(=O)OCC(OC(=O)C(CCCCCC)CCCCCCCC)C1OC(=O)C(OC(=O)C(CCCCCC)CCCCCCCC)=C1OC(=O)C(CCCCCC)CCCCCCCC` (centres unmarked) [Tetrahexydecyl ascorbate, tetrahexydecyl ascorbate, reference compound] the “Total accumulated dose passed through the skin into the reservoir” value ([1]; 4 hrs) was 0.00 μg/cm^2, the “Total accumulated dose passed through the skin into the reservoir” value ([1]; 8 hrs) was 0.00 μg/cm^2 and the “Total accumulated dose passed through the skin into the reservoir” value ([1]; 24 hrs) was 0.00 μg/cm^2. For the same compound, the “Total accumulated dose in Dermis” value [1] was 0.18 μg/cm^2 and the “Total accumulated dose in Epidermis” value [1] was 25.78 μg/cm^2.

— patent publication US20260207459A1, “SUGARCANE DERIVED SEMI-SYNTHETIC COSMETIC INGREDIENTS, METHODS OF PRODUCTION THEREOF, AND PERSONAL CARE PRODUCTS DERIVED THEREFROM” (AMYRIS, INC., priority 2023, published 2026)
